Data as given in patent US20120010178A1, “METHODS AND COMPOUNDS FOR TREATMENT OF NEURODEGENERATIVE DISORDERS” (PRESIDENT AND FELLOWS OF HARVARD COLLEGE, priority 2008, published 2012).
“Also recorded” adds a separate entry of the source.

Legend:
SMN [1] = assay: High-content fibroblast screen for compounds that modulate SMN level; details: for SMN level in fibroblast screen (increase or decrease): human fibroblasts, 2-3 days with compound;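 for all read-outs here: Anti-SMN immunostaining with confocal imaging of nuclear and cytoplasmic SMN and gem counts, tested at 0.1, 1 and 10 uM, fold change relative to negative control wells on each plate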
Experimental: Human fibroblasts were incubated for 2-3 days with compounds from annotated collections. Cells were fixed and stained with an anti-SMN antibody. Confocal imaging was used to quantify SMN fluorescence in nucleus and cytoplasm and count Gems. Data were collected and subsequently analyzed by clustering compounds by suspected mechanism of action and chemical structure.
Following optimization of assay conditions on day 0, total of 500 human fibroblasts (GM09677 line) per well were seeded in 384-well plates, on day 3 they were treated with compounds (robot CyBio) from the annotated collections and on the 5 day plates were fixed and stained (robot MAPD) with an anti-SMN antibody and secondary antibody conjugated with 448 fluorophore (FIG. 19a). Compounds from the libraries were added in duplicate at three final concentrations of 10, 1 and 0.1 uM.
SMN detection was done on the automated confocal microscope Opera PerkinElmer with separate fluorescent exposures to 488 nM laser for and a UV light source to detect nuclei stained with Hoechst 33258 with a 20× objective.
After scanning on the Opera, an XML file extraction workflow, designed with Inforsense KDE, was used to assemble the data from multiple replicate plates of each HCS experiment including the quantitative parameters described above and chemical identities, chemical concentrations and indications of which wells were used for positive and negative controls. […] The fold-induction of SMN intensity values for each well treated with a library chemical were normalized to the SMN average intensity in multiple negative control wells per plate.
Since it is not known which form of SMN increase is the most essential, hits that scored in a duplicate at least in two different parameters greater than 1.3 fold at any of the three concentrations were selected (FIG. 19d). […] Further, 220 compounds were screened in the absence of anti-SMN primary antibody with the same assay conditions, to filter out the fluorescent compounds.

SMN [2] = assay: SMN immunofluorescence quantification (cytoplasm, nucleus, GEMs) in fibroblasts from SMA patients; format: cell-based, human; details: for levels of cytoplasmic and nuclear SMN (in words) / Avg. SMN fold increase: SMA patient fibroblasts; for levels of cytoplasmic and nuclear SMN (in words): substance alone; for decrease of basal level of SMN: added to the regular serum media in which cells are maintained, no added PDGF; for Avg. SMN fold increase: human PDGF isoforms
Experimental: Specifically, fibroblasts from patients suffering from SMA were treated with Ionomycin (a channel modulator), Ouabain (a cardiac glycoside and channel modulator), PDGF, SAHA (an HDAC inhibitor), Lactacystin (a proteasome inhibitor) or WIN 55,212-2 (a cannabinoid receptor […] and GPCR ligand) for 72 hours. The cells were fixed with methanol/acetone and stained with Pharmingen BD antibodies, followed by 488 AlexaFluor staining. Images were obtained with 60× lens on Zeiss LSM510 META on an inverted confocal microscope.
For example, fibroblasts from patients suffering from SMA were treated with Ouabain, Digoxin or Lanatoside at a concentration of 0, 2.5 nM, 5 nM, 10 nM, 20 nM, 40 nM, 80 nM, […] for 72 hours. The cells were fixed with methanol/acetone and stained with Pharmingen BD antibodies, followed by 488 AlexaFluor staining. Images were obtained with 60× lens on Zeiss LSM510 META on an inverted confocal microscope.
An assay was established for high-content evaluation of SMN protein level in different cellular compartments after treatment with small molecules. SMN protein was visualized by immunofluorescent staining and multiple fields from each plate well were scanned by an automated confocal Opera microscope. […] For each well, the algorithm generated quantitative parameters representing number of cells, as well as SMN fluorescent intensity per cell in cytoplasm, nucleus, number and intensity of GEMs (FIG. 15). […] During the assay transfer to the robotic platform fixation with the ice cold methanol was technically limited, therefore to preserve the maximum possible window we chose to perform the screen on parental fibroblast with PFA fixation.
For fibroblast assays, human fibroblasts lines GM09677 (derived from patient with SMA type 1 disease) and GM03814 (derived from unaffected parental SMA carriers) were used (Coriell Cell Repositories). […] For secondary assays cells from GM09677 line were used.
Fibroblasts were grown in MEM media (Invitrogen) supplemented with 5% Fetal Bovine Serum (FBS, Invitrogen), 2 mM glutamine and 1% penicillin-streptomycin (100 U/ml) in a presence of 5% CO2 at 37° C. For drug treatments, cells were plated and treated 24 h later with 10 μM MG132 (Biomol International), […] Calpeptin (Biomol International), 10 mM ammonium chloride, 1 μM myristoylated PKI, or vehicle for the designated times.
(§1) Compounds were stored at appropriate temperature and dissolved accordingly to the manufacturers (Tocris, Enzo, EMD and Sigma-Aldrich) in DMSO (Sigma-Aldrich), unless stated otherwise (Monensin Na in EtOH, DMPQ in water). Growth factors and PDGF neutralizing antibodies (R&D Systems) were reconstituted with buffers recommended by the supplier. For generation of the dose curves, 1×10^3 fibroblasts were plated on to 96-well Greiner Senso plates (VWR) and treated with compounds on the second day then fixed and stained at the indicated time points. For GSK inhibitors and performing p-GSK3b(Ser9) detection, two days after plating growth media containing 5% FBS was replaced to the media with FBS reduced down to 0.5%, to starve cells for 72 hours. Addition of the GSK inhibitors was done in 5% FBS enriched media.

SMN [3] = assay: Inhibition of PDGF-stimulated SMN increase in fibroblasts by kinase/receptor inhibitors; format: cell-based, human; details: for SMN Cytoplam (inhibition of PDGF-stimulated SMN increase) / SMN GEM Intensity (inhibition of PDGF-stimulated SMN increase) / SMN Nuclear (inhibition of PDGF-stimulated SMN increase): inhibitor at the concentration (nM), fibroblast stimulation with PDGF; for PDGF-stimulated SMN increase in presence of inhibitor (in words): SMA patient fibroblasts, PDGF plus inhibitor or neutralizing antibody; for Cell Number (affected by inhibitor): inhibitor at the concentration of the table row, PDGF stimulated fibroblasts; for PDGF-stimulated SMN increase in the cytoplasm in presence of inhibitor (in words) / PDGF-stimulated SMN increase in the nucleus in presence of inhibitor (in words): pre-treatment with p38 inhibitor
Experimental: Fibroblasts from patients suffering from SMA were treated with PDGF at a concentration of 0, 0.3 ng/ml, 0.63 ng/ml, 1.25 ng/ml, 2.5 ng/ml, 5 ng/ml, 10 ng/ml or 20 ng/ml, in the absence or in the presence of 25 uM DMPQ or 25 uM AG-1296 respectively for 72 hours. The levels of both cytoplasmic and nuclear SMN were detected and quantified using the method described in Example 2.
(§2) Fibroblasts from patients suffering from SMA were either control treated or treated with PDGF at a concentration of 0, 0.63 ng/ml, 1.25 ng/ml, 2.5 ng/ml, 5 ng/ml, 10 ng/ml or 20 ng/ml, in the absence or in the presence of 50 uM LY294002 or 2 uM P1-103 respectively for 72 hours. The levels of both cytoplasmic and nuclear SMN were detected and quantified using the method described in Example 2.
as §2, with “of” for “of 50 uM LY294002 or”, “uM Papamycin” for “uM P1-103 respectively”, “Example x.” for “Example 2.”
A range of concentrations were tested in order not to miss the effects. SMN level were evaluated by Opera Evoteck in each cellular compartment and to assess the cell numbers that are summarized in the Table 3.
as §1, with “media. As previously described, starvation increases levels of constitutively activate GSK3b kinase, allowing to achieve a more dramatic inhibitory effect when GSK inhibitors are added together with growth factors that are also known to inhibit GSK by Ser-9 phosphorylation. […] For all compounds and growth factors control wells received solvent in amount equivalent to the highest concentration of the compound in a dose curve. For PDGF inhibitory studies, cells were pre-treated with kinase inhibitors for 2 hours and PDGF was added with a fresh kinase inhibitor solution and incubated for an additional 3 days.” for “media.”

Compound | SMN level in fibroblast screen (increase or decrease) (SMN [1]) | SMN Cytoplam (inhibition of PDGF-stimulated SMN increase) (SMN [3]) | SMN GEM Intensity (inhibition of PDGF-stimulated SMN increase) (SMN [3]) | SMN Nuclear (inhibition of PDGF-stimulated SMN increase) (SMN [3]) | other results
CCCCC/C=C\C/C=C\C/C=C\C/C=C\CCCC(=O)NCCO [Anandamide] | increase SMN | – | – | – | –
COc1ccc(C[C@H]2NC[C@H](O)[C@H]2OC(C)=O)cc1 [Anysomycin] | increase SMN | – | – | – | concentration at which SMN level was increased (SMN [1]; during screening): 0.1 µM
COC(=O)C1=C(C)NC(C)=C([N+](=O)[O-])C1c1ccccc1C(F)(F)F (stereo not shown) [Bay K8644] | – | – | – | – | levels of cytoplasmic and nuclear SMN (in words) (SMN [2]): not active
Cc1c[nH]c(-c2cnc(NCCNc3ccc(C#N)cn3)nc2-c2ccc(Cl)cc2Cl)n1 [CHIR99021] | – | – | – | – | levels of cytoplasmic and nuclear SMN (in words) (SMN [2]): increase SMN levels; also recorded: Most active compounds
CC(=O)C1=C(O)[C@@H]2[C@H]3c4c[nH]c5cccc(c45)C[C@H]3C(C)(C)N2C1=O [Cyclopiazonic acid] | – | – | – | – | levels of cytoplasmic and nuclear SMN (in words) (SMN [2]): not active
C[C@H]1O[C@@H](O[C@H]2[C@@H](O)C[C@H](O[C@H]3[C@@H](O)C[C@H](O[C@H]4CC[C@@]5(C)[C@H](CC[C@@H]6[C@@H]5C[C@@H](O)[C@]5(C)[C@@H](C7=CC(=O)OC7)CC[C@]65O)C4)O[C@@H]3C)O[C@@H]2C)C[C@H](O)[C@@H]1O [Digoxin] | increase SMN | – | – | – | –
OCCN(CCO)c1nc(N2CCCCC2)c2nc(N(CCO)CCO)nc(N3CCCCC3)c2n1 [Dipyridamole] | increase SMN | – | – | – | –
C[C@H]1O[C@@H](O[C@H]2[C@@H](O)C[C@H](O[C@H]3[C@@H](O)C[C@H](O[C@H]4CC[C@@]5(C)[C@H](CC[C@@H]6[C@@H]5CC[C@]5(C)[C@@H](C7=CC(=O)OC7)CC[C@]65O)C4)O[C@@H]3C)O[C@@H]2C)C[C@H](O)[C@@H]1O [Dititoxin] | increase SMN | – | – | – | –
O=C1Nc2ccc3ncsc3c2/C1=C/Nc1ccc(S(=O)(=O)Nc2ccccn2)cc1 [GW8510] | SMN is increase | – | – | – | –
O=C(Nc1cc(C(F)(F)F)cc(C(F)(F)F)c1)c1cc(Cl)ccc1O [IMD-0354] | SMN is increase | – | – | – | –
O=c1cc(N2CCOCC2)oc2c(-c3ccccc3)cccc12 [LY294002] | – | 100% | 100% | 100% | decrease of basal level of SMN (SMN [2]): 40%; reduction of SMN (SMN [2]; combinatory treatment of 0.5% serum and PI-3 kinase inhibitor, patient cells): 20%
CC(=O)O[C@H]1C[C@H](O[C@H]2[C@@H](O)C[C@H](O[C@H]3[C@@H](O)C[C@H](O[C@H]4CC[C@@]5(C)[C@H](CC[C@@H]6[C@@H]5C[C@@H](O)[C@]5(C)[C@@H](C7=CC(=O)OC7)CC[C@]65O)C4)O[C@@H]3C)O[C@@H]2C)O[C@H](C)[C@H]1O[C@@H]1O[C@H](CO)[C@@H](O)[C@H](O)[C@H]1O [Lanatoside C] | increase SMN | – | – | – | –
COc1cccc(-c2cc(=O)c3ccccc3o2)c1N [PD98059] | – | 20% | 20% | 20% | PDGF-stimulated SMN increase in presence of inhibitor (in words) (SMN [3]): only partially inhibited; Cell Number (affected by inhibitor) (SMN [3]): Yes
CO[C@H]1C[C@@H]2CC[C@@H](C)[C@@](O)(O2)C(=O)C(=O)N2CCCC[C@H]2C(=O)O[C@H]([C@H](C)C[C@@H]2CC[C@@H](O)[C@H](OC)C2)CC(=O)[C@H](C)/C=C(\C)[C@@H](O)[C@@H](OC)C(=O)[C@H](C)C[C@H](C)/C=C/C=C/C=C/1C [Rapamycin] | – | 80% | 80-100% | 80-100% | –
Oc1ccc(-c2nc(-c3ccc(F)cc3)c(-c3ccncc3)[nH]2)cc1 [SB202190] | – | 20% | some | 0% | Cell Number (affected by inhibitor) (SMN [3]): Yes; PDGF-stimulated SMN increase in the cytoplasm in presence of inhibitor (in words) (SMN [3]): able to prevent SMN increase induced by PDGF; also recorded: partial inhibition of SMN in the cytoplasm; PDGF-stimulated SMN increase in the nucleus in presence of inhibitor (in words) (SMN [3]): not in the nucleus; also recorded: leaving nuclear SMN unaffected
C[S+]([O-])c1ccc(-c2nc(-c3ccc(F)cc3)c(-c3ccncc3)[nH]2)cc1 (stereo not shown) [SB203580, 4-(4-Fluorophenyl)-2-(4-methylsulfinylphenyl)-5-(4-pyridyl)-1H-imidazole] | – | 20% | some | 0% | Cell Number (affected by inhibitor) (SMN [3]): Yes; PDGF-stimulated SMN increase in the cytoplasm in presence of inhibitor (in words) (SMN [3]): able to prevent SMN increase induced by PDGF; also recorded: partial inhibition of SMN in the cytoplasm; PDGF-stimulated SMN increase in the nucleus in presence of inhibitor (in words) (SMN [3]): not in the nucleus; also recorded: leaving nuclear SMN unaffected
CC(=O)O[C@@H]1[C@@H](OC(C)=O)[C@@H](O)[C@H](Oc2c(-c3ccc(O)cc3)oc3cc(O)cc(O)c3c2=O)O[C@H]1C [SL-0101] | – | 20% | 20% | 20% | PDGF-stimulated SMN increase in presence of inhibitor (in words) (SMN [3]): didn't have an inhibitory effect
N#CC(=C(/N)Sc1ccccc1N)/C(C#N)=C(\N)Sc1ccccc1N [U0126] | – | 20-30% ^ | 10% | 10% | PDGF-stimulated SMN increase in presence of inhibitor (in words) (SMN [3]): only partially inhibited; Cell Number (affected by inhibitor) (SMN [3]): No
DMSO | – | – | – | – | decrease of basal level of SMN (SMN [2]): 20%
FGF2: fibroblast growth factor, RTK ligand | – | – | – | – | levels of cytoplasmic and nuclear SMN (in words) (SMN [2]): increases SMN levels; levels of cytoplasmic and nuclear SMN (in words) (SMN [2]; listed as bFGF): active
PDGF-AA rec.: recombinant PDGF-AA | – | – | – | – | Avg. SMN fold increase (SMN [2]): 1.3-1.4 fold
PDGF-AB rec.: recombinant PDGF-AB | – | – | – | – | Avg. SMN fold increase (SMN [2]): 1.7-1.9 fold
Ryanodine | – | – | – | – | levels of cytoplasmic and nuclear SMN (in words) (SMN [2]): weak effect
